Results as given in patent US10487080B2, “Naphthyridines as integrin antagonists” (GlaxoSmithKline Intellectual Property Development Limited, priority 2016, dated 2019).

What was measured:
Type in all cases: cell-based
αvβ1 = molecular target: T1, αvβ1 (Homo sapiens, UniProt P05556+P06756); experiment: Cell Adhesion Assay αvβ1; conditions: A549-αvβ1 cells, ligand LAP-b1, 2 mM MgCl2; read-out: mean affinity (pIC50) αvβ1 (converted)
T1 construct: host or cells: A549-αvβ1
Method: (§1) The following cell lines are used, with ligands in brackets: K562-αvβ3 (LAP-b1), K562-αvβ5 (Vitronectin), K562-αvβ6 (LAP-b1), K562-αvβ8 (LAP-b1), A549-αvβ1 (LAP-b1). The divalent cation used to facilitate adhesion is 2 mM MgCl2. Adhesion is quantified by cell labelling with the fluorescent dye BCECF-AM (Life Technologies), where cell suspensions at 3×10^6cells/nnL are incubated with 0.33 uL/mL of 30 mM BCECF-AM at 37° C. for 10 minutes, then 50 μL/well are dispensed into the 96-well assay plate. At the assay conclusion cells that adhered are lysed using 50 μL/well of 0.5% Triton X-100 in H2O to release fluorescence. Fluorescence intensity is detected using an Envision® plate reader (Perkin Elmer). For active antagonists in the assay, data is fitted to a 4 parameter logistic equation for IC50 determinations.
(§2) Those of skill in the art will recognise that in vitro binding assays and cell-based assays for functional activity are subject to experimental variability.

αvβ5 = molecular target: T2, αvβ5 (Homo sapiens, UniProt P06756+P18084); experiment: Cell Adhesion Assay αvβ5; conditions: K562-αvβ5 cells, ligand Vitronectin, 2 mM MgCl2; read-out: mean affinity (pIC50) αvβ5 (converted)
T2 construct: expressed in transfected cells; host or cells: K562-αvβ5
Method: as §1, §2

αvβ6 = molecular target: T3, αvβ6 (Homo sapiens, UniProt P06756+P18564); experiment: Cell Adhesion Assay αvβ6; conditions: K562-αvβ6 cells, ligand LAP-b1, 2 mM MgCl2; read-out: mean affinity (pIC50) αvβ6 (converted)
T3 construct: expressed in transfected cells; host or cells: K562-αvβ6
Method: as §1, §2

αvβ8 = molecular target: T4, αvβ8 (Homo sapiens, UniProt P06756+P26012); experiment: Cell Adhesion Assay αvβ8; conditions: K562-αvβ8 cells, ligand LAP-b1, 2 mM MgCl2; read-out: mean affinity (pIC50) αvβ8 (converted)
T4 construct: expressed in transfected cells; host or cells: K562-αvβ8
Method: as §1, §2

αvβ3 = molecular target: T5, αvβ3 (Homo sapiens, UniProt P05106+P06756); experiment: Cell Adhesion Assay αvβ3; conditions: K562-αvβ3 cells, ligand LAP-b1, 2 mM MgCl2; read-out: mean affinity (pIC50) αvβ3 (converted)
T5 construct: expressed in transfected cells; host or cells: K562-αvβ3
Method: as §1, §2

T4 sequence (P06756 31-889 limits assumed): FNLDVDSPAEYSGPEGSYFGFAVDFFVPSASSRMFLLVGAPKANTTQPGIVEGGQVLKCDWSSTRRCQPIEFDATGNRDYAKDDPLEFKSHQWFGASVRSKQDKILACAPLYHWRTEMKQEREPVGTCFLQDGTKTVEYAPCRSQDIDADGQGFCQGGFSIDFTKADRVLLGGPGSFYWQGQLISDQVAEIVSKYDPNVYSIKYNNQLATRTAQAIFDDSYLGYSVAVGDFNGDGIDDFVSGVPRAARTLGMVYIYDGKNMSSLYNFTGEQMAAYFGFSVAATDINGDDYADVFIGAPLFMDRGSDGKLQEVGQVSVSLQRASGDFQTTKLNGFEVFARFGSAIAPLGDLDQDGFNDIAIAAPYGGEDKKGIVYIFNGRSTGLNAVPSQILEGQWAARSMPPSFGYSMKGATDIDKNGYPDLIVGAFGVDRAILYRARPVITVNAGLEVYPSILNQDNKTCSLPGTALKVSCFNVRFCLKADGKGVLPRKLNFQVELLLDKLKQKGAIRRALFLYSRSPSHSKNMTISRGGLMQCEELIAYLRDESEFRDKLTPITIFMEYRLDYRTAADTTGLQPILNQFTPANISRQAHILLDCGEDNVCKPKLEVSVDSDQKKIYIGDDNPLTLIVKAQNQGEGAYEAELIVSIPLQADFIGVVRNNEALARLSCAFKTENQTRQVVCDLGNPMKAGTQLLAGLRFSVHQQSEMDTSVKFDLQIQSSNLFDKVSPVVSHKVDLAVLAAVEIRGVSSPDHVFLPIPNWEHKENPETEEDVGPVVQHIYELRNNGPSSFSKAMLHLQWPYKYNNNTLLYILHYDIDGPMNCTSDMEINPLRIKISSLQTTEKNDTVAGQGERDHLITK
T4 sequence (P06756 891-1048 partner limits assumed): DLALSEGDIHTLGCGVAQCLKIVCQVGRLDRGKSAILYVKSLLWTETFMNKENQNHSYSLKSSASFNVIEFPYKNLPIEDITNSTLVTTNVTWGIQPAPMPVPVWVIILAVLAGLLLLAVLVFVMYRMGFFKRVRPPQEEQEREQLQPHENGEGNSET
T4 sequence (P26012 43-769): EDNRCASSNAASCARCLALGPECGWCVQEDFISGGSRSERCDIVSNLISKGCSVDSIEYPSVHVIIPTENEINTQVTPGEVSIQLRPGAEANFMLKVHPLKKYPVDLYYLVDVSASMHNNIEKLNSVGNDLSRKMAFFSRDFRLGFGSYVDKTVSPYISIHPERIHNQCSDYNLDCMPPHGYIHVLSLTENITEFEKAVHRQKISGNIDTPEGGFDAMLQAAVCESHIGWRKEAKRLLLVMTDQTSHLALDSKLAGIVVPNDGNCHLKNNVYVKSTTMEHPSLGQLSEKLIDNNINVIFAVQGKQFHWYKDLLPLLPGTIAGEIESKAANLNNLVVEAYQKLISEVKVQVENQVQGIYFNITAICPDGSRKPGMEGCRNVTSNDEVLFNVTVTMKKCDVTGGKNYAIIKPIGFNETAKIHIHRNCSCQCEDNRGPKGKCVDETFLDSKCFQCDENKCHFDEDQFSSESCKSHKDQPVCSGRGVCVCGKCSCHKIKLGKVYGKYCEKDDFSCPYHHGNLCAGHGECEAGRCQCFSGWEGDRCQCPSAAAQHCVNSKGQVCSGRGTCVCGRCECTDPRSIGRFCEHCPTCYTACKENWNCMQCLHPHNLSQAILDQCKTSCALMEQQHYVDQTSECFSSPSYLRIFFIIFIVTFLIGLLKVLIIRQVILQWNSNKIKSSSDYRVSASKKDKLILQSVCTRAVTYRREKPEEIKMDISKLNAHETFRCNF
T5 sequence (P06756 31-889 limits assumed): as the sequence (P06756 31-889 limits assumed) above
T5 sequence (P06756 891-1048 partner limits assumed): as the sequence (P06756 891-1048 partner limits assumed) above
T5 sequence (P05106 27-788): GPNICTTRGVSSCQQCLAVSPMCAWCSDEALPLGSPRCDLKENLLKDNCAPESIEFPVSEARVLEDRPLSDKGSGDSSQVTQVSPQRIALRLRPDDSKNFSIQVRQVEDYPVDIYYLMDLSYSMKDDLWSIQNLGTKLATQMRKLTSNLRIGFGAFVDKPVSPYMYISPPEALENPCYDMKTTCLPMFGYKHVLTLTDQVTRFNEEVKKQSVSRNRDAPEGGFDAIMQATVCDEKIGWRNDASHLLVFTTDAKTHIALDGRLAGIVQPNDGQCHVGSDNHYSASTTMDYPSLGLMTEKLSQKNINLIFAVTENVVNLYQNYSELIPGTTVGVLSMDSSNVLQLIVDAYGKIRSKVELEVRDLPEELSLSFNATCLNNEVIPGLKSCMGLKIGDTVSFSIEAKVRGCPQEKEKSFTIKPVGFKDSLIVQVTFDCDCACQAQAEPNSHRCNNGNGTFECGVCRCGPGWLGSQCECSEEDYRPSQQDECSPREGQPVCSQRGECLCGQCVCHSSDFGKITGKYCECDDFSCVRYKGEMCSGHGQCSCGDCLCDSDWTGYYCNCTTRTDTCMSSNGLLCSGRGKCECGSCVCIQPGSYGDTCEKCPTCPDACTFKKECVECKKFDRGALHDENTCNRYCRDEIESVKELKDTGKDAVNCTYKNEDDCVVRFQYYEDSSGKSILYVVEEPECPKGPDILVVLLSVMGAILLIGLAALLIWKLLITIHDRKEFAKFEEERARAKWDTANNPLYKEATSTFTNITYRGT
T2 sequence (P06756 31-889 limits assumed): as the sequence (P06756 31-889 limits assumed) above
T2 sequence (P06756 891-1048 partner limits assumed): as the sequence (P06756 891-1048 partner limits assumed) above
T2 sequence (P18084 24-799): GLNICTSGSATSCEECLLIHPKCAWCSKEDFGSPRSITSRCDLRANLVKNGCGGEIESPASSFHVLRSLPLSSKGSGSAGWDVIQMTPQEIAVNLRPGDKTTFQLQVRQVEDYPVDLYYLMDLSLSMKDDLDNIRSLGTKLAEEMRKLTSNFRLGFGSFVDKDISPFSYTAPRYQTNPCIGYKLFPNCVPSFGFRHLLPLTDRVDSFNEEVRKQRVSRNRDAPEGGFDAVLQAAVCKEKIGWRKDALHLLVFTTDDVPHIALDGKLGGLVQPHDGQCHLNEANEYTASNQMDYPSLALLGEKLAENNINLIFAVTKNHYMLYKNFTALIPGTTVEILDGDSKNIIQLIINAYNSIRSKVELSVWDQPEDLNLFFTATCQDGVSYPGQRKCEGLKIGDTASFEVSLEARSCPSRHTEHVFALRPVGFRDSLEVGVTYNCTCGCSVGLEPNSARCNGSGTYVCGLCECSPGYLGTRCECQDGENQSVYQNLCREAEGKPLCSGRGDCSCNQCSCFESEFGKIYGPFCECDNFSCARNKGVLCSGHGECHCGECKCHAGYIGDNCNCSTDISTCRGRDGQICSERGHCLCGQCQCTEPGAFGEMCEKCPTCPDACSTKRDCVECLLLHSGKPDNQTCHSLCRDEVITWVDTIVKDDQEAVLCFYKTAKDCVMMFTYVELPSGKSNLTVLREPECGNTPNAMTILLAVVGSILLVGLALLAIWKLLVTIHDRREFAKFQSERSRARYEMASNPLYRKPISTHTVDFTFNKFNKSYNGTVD
T1 sequence (P06756 31-889 limits assumed): as the sequence (P06756 31-889 limits assumed) above
T1 sequence (P06756 891-1048 partner limits assumed): as the sequence (P06756 891-1048 partner limits assumed) above
T1 sequence (P05556 21-798): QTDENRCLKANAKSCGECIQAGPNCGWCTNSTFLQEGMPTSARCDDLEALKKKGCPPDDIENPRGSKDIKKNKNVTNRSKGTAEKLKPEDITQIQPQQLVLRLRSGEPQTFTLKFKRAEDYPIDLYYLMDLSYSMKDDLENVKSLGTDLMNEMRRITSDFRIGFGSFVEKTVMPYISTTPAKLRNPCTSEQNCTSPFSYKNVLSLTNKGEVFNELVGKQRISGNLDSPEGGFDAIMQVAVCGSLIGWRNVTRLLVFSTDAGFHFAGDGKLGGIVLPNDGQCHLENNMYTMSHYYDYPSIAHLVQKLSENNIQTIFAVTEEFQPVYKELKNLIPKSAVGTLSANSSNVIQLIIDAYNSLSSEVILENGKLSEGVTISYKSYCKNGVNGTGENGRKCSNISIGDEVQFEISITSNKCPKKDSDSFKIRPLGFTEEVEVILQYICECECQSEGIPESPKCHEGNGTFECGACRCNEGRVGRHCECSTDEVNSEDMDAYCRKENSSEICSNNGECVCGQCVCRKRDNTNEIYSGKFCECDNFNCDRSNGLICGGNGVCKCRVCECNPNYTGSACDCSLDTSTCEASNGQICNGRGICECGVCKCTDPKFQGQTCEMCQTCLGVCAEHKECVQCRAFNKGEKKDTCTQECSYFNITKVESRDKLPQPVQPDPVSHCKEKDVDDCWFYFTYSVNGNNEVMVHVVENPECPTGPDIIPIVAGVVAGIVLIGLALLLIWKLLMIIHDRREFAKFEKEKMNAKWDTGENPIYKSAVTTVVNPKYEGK

| Compound | IC50 (αvβ1) [nM] | IC50 (αvβ5) [nM] | IC50 (αvβ6) [nM] | IC50 (αvβ8) [nM] | IC50 (αvβ3) [nM] |
| --- | --- | --- | --- | --- | --- |
| CO[C@@H](C)COc1cccc([C@H](CC(=O)O)CN2CC[C@@H](CCc3ccc4c(n3)NCCC4)C2)c1 [Example 3, (S)-3-(3-((S)-2-methoxypropoxy)phenyl)-4-((R)-3-(2-(5,6,7,8-tetrahydro-1,8-naphthyridin-2-yl)ethyl)pyrrolidin-1-yl)butanoic acid] | 126 | 15.8 | 2.51 | 15.8 | – |
| COCC(C)(C)Oc1cccc([C@H](CC(=O)O)CN2CC[C@@H](CCc3ccc4c(n3)NCCC4)C2)c1 [Example 11] | 50.1 | 63.1 | – | 15.8 | 316 |
| O=C(O)C[C@H](CN1CC[C@@H](CCc2ccc3c(n2)NCCC3)C1)c1cccc(OC[C@H]2CCCO2)c1 [Example 14, (S)-4-((R)-3-(2-(5,6,7,8-Tetrahydro-1,8-naphthyridin-2-yl)ethyl)pyrrolidin-1-yl)-3-(3-(((R)-tetrahydrofuran-2-yl)methoxy)phenyl)butanoic acid] | 398 | 39.8 | 5.01 | 20 | 79.4 |
| COCC(COC)Oc1cccc(C(CC(=O)O)CN2CC[C@@H](CCc3ccc4c(n3)NCCC4)C2)c1 (stereo partly drawn) [Example 17, 3-(3-((1,3-Dimethoxypropan-2-yl)oxy)phenyl)-4-((R)-3-(2-(5,6,7,8-tetrahydro-1,8-naphthyridin-2-yl)ethyl)pyrrolidin-1-yl)butanoic acid] | – | – | 12.6 | 20 | 398 |
| O=C(O)C[C@H](CN1CC[C@@H](CCc2ccc3c(n2)NCCC3)C1)c1cccc(OC[C@@H]2CCCO2)c1 [Example 15, (S)-4-((R)-3-(2-(5,6,7,8-tetrahydro-1,8-naphthyridin-2-yl)ethyl)pyrrolidin-1-yl)-3-(3-(((S)-tetra hydrofuran-2-yl)methoxy)phenyl)butanoic acid] | 501 | 39.8 | 5.01 | 39.8 | 100 |
| O=C(O)CC(CN1CC[C@@H](CCc2ccc3c(n2)NCCC3)C1)c1cccc(OCC2COC2)c1 (stereo partly drawn) [Example 20, 3-(3-(Oxetan-3-ylmethoxy)phenyl)-4-((R)-3-(2-(5,6,7,8-tetrahydro-1,8-naphthyridin-2-yl)ethyl)pyrrolidin-1-yl)butanoic acid] | – | – | 7.94 | 20 | 398 |
| COCCCOc1cccc(C(CC(=O)O)CN2CC[C@@H](CCc3ccc4c(n3)NCCC4)C2)c1 (stereo partly drawn) [Example 19, 3-(3-(3-Methoxypropoxy)phenyl)-4-((R)-3-(2-(5,6,7,8-tetrahydro-1,8-naphthyridin-2-yl)ethyl)pyrrolidin-1-yl)butanoic acid] | – | 63.1 | 10 | 12.6 | 158 |
| COCCOc1cccc([C@H](CC(=O)O)CN2CC[C@@H](CCc3ccc4c(n3)NCCC4)C2)c1 [Example 1, (S)-3-(3-(2-methoxyethoxy)phenyl)-4-((R)-3-(2-(5,6,7,8-tetrahydro-1,8-naphthyridin-2-yl)ethyl)pyrrolidin-1-yl)butanoic acid] | 158 | 10 | 3.16 | – | – |
| CO[C@H](C)COc1cccc([C@H](CC(=O)O)CN2CC[C@@H](CCc3ccc4c(n3)NCCC4)C2)c1 [Example 2, (S)-3-(3-((R)-2-methoxypropoxy)phenyl)-4-((R)-3-(2-(5,6,7,8-tetrahydro-1,8-naphthyridin-2-yl)ethyl)pyrrolidin-1-yl)butanoic acid] | 100 | 15.8 | 2.51 | – | 63.1 |
| COCCOc1ccc(F)c([C@H](CC(=O)O)CN2CC[C@@H](CCc3ccc4c(n3)NCCC4)C2)c1 [Example 16, (S)-3-(2-Fluoro-5-(2-methoxyethoxy)phenyl)-4-((R)-3-(2-(5,6,7,8-tetrahydro-1,8-naphthyridin-2-yl)ethyl)pyrrolidin-1-yl)butanoic acid] | – | – | 7.94 | 100 | – |
| COCCOc1cc(OCCF)cc(C(CC(=O)O)CN2CC[C@@H](CCc3ccc4c(n3)NCCC4)C2)c1 (stereo partly drawn) [Example 18, 3-(3-(2-Fluoroethoxy)-5-(2-methoxyethoxy)phenyl)-4-((R)-3-(2-(5,6,7,8-tetrahydro-1,8-naphthyridin-2-yl)ethyl)pyrrolidin-1-yl)butanoic acid] | 200 | – | 5.01 | 25.1 | 398 |
| CC(C)OCCOc1cccc([C@H](CC(=O)O)CN2CC[C@@H](CCc3ccc4c(n3)NCCC4)C2)c1 [Example 13, (S)-3-(3-(2-Isopropoxyethoxy)phenyl)-4-((R)-3-(2-(5,6,7,8-tetrahydro-1,8-naphthyridin-2-yl)ethyl)pyrrolidin-1-yl)butanoic acid] | – | 31.6 | 10 | 20 | 100 |
| COCCOc1cc(OCCOC)cc([C@H](CC(=O)O)CN2CC[C@@H](CCc3ccc4c(n3)NCCC4)C2)c1 [Example 8, (S)-3-(3,5-Bis(2-methoxyethoxy)phenyl)-4-((R)-3-(2-(5,6,7,8-tetrahydro-1,8-naphthyridin-2-yl)ethyl)pyrrolidin-1-yl)butanoic acid] | 200 | 31.6 | 3.16 | 20 | 126 |
| COC[C@@H](C)Oc1cccc([C@H](CC(=O)O)CN2CC[C@@H](CCc3ccc4c(n3)NCCC4)C2)c1 [Example 12, (S)-3-(3-(((R)-1-methoxypropan-2-yl)oxy)phenyl)-4-((R)-3-(2-(5,6,7,8-tetrahydro-1,8-naphthyridin-2-yl)ethyl)pyrrolidin-1-yl)butanoic acid] | – | 63.1 | – | – | 251 |
| COC(C)(C)COc1cccc([C@H](CC(=O)O)CN2CC[C@@H](CCc3ccc4c(n3)NCCC4)C2)c1 [Example 4, (S)-3-(3-(2-methoxy-2-methylpropoxy)phenyl)-4-((R)-3-(2-(5,6,7,8-tetrahydro-1,8-naphthyridin-2-yl)ethyl)pyrrolidin-1-yl)butanoic acid] | 158 | – | – | 15.8 | 200 |
| COC[C@H](C)Oc1cccc(C(CC(=O)O)CN2CC[C@@H](CCc3ccc4c(n3)NCCC4)C2)c1 (single isomer, unassigned) [Example 5] | 251 | – | – | – | 3160 |
